Data: patent US20190390169A1, “PANCREATIC PROGENITOR CELL PRODUCTION METHOD” (Kyoto University, priority 2017, published 2019)
Counter-ions that a name gives are not always drawn.

How the values were obtained:
CDK8/CycC = molecular target: T1, CDK8/CycC (Homo sapiens, UniProt P49336); assay: CDK8-inhibiting activity (Kinase Tracer-236 / Eu-anti-GST fluorescence assay); type: binding; details: read-out: rate of inhibition of CDK8; for inhibition at 1 µM: 1 μM test compound; for inhibition at 10 µM: 10 μM test compound
T1 construct: purchased Carna Biosciences
T1 sequence (P49336 whole entry): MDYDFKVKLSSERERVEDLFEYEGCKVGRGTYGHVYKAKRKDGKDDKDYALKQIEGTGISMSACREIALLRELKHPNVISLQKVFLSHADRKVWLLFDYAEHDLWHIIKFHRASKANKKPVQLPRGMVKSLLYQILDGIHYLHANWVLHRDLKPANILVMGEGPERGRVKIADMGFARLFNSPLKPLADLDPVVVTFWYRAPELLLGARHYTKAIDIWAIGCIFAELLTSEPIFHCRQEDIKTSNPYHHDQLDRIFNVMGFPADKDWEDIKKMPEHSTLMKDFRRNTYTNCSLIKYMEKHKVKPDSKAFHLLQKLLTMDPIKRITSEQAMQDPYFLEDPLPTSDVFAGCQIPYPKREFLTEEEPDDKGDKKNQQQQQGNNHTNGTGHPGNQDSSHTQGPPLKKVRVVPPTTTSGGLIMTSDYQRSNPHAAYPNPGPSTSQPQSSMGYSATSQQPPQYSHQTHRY
T1 sequence (P24863 whole entry partner): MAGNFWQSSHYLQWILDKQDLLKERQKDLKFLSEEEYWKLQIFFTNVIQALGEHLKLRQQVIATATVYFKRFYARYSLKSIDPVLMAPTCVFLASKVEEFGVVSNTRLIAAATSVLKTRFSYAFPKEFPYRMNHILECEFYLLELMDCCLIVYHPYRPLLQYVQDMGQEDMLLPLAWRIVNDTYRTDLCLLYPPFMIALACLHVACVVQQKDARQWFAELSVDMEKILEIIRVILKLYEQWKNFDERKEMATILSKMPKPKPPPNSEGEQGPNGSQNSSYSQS
Experimental: (§1) Test compounds were evaluated for their CDK8-inhibiting activity and CDK19-inhibiting activity by the following method.
(§2) Each test compound dissolved in dimethyl sulfoxide was diluted with an assay buffer (25 mM HEPES, 10 mM MgCl2, 2 mM DL-dithiothreitol, 0.01% Tween-20) to obtain a primary dilution having a DMSO concentration of 3%. The primary dilution was dispensed at 2 μL/well to a 384-well plate. Then, a mixed solution of Eu^3+ Cryptate conjugated mouse monoclonal antibody anti-glutathione S-transferase (CisBio) diluted 267-fold with an assay buffer and 60 nM Kinase Tracer-236 (Life Technologies) was added at 2 μL/well. After the addition, a kinase solution (84 ng/mL CDK8/CycC (Carna Biosciences) diluted with an assay buffer was used for CDK8-inhibiting activity measurement, and 87 ng/mL CDC2L6/CycC (Carna Biosciences) diluted with an assay buffer was used for CDK19-inhibiting activity measurement) was further added at 2 μL/well. After the addition, the plate was left standing at room temperature for 1 hour, followed by the measurement of fluorescence intensity (excitation wavelength: 320 nm, fluorescence wavelength: 615 nm, 665 nm, delay time: 50 μsec) using a plate reader EnVision (Perkin Elmer).
(§3) When the fluorescence intensity of a reaction solution under compound non-addition conditions was used as a control and the fluorescence intensity of a reaction solution under 10 μM control compound addition conditions was used as a blank, the rate of inhibition of CDK8 or CDK19 by the test compound can be calculated according to the following expression:
(§4) Rate of inhibition (%)=(1−(Fluorescence intensity of the test compound−Blank)/(Control−Blank))×100
(§5) The control compound used was commercially available 4-(4-(2,3-dihydro-1,4-benzodioxin-6-yl)-1H-pyrazol-3-yl)benzene-1,3-diol.

CDC2L6/CycC (CDK19) = molecular target: T2, CDC2L6/CycC (CDK19) (Homo sapiens, UniProt Q9BWU1); assay: CDK19-inhibiting activity (Kinase Tracer-236 / Eu-anti-GST fluorescence assay); type: binding; details: read-out: rate of inhibition of CDK19; for inhibition at 1 µM: 1 μM test compound; for inhibition at 10 µM: 10 μM test compound
T2 construct: purchased Carna Biosciences
T2 sequence (Q9BWU1 whole entry): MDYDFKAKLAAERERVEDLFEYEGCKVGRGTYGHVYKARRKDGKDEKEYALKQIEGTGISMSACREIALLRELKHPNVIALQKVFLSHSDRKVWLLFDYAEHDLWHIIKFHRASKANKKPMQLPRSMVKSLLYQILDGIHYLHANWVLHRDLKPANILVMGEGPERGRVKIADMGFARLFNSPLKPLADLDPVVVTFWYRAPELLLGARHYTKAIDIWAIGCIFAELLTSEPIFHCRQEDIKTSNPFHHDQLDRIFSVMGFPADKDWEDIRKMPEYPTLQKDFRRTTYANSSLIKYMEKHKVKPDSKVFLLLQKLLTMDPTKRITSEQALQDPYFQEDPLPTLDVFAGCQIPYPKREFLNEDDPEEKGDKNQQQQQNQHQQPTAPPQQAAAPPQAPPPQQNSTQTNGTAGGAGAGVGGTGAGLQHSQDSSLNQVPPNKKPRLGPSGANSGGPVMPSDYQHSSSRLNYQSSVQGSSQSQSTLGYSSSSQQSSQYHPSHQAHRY
T2 sequence (P24863 whole entry partner): as the sequence (P24863 whole entry partner) above
Experimental: as §1, §2, §3, §4, §5

[1] = tested on: Ff-WJ-18 cells (human iPS cells); assay: Induction of differentiation of iPS cells into pancreatic progenitor cells at stage 4, flow cytometry; type: cell-based; details: stage 4, 4 days, 0.00001 μM to 1 μM, medium with or without ROCK inhibitor Y-27632, vs negative control (FIG. 2, FIG. 3)
Experimental: The human iPS cells used were Ff-WJ-18 cells (Kyoto University). The Ff-WJ-18 cells maintenance-cultured according to Reference Example 1 were induced to differentiate into pancreatic progenitor cells by the following procedures. Culture was performed at 37° C. under 5% CO2 in all cases, and the culture container used was coated with iMatrix-511(TM) (Nippi).
Ff-WJ-18 cells (70,000 cells/9.6 cm^2) were seeded to RPMI1640 medium containing 1% penicillin/streptomycin, 1% B27, activin A (100 ng/mL), CHIR99021 (3 μM), and Y-27632 (10 μM), and cultured for 1 day. The cells were further cultured for 2 days in RPMI1640 medium containing 1% penicillin/streptomycin, 1% B27, and activin A (100 ng/mL) with the medium replaced with a fresh one every day.
The resulting cells were cultured for 4 days using instead iMEM medium containing 1% penicillin/streptomycin, 1% B27, and KGF (50 ng/mL). […]
The cells after the culture at stage 4 were collected, and the proportion of NKX6.1-positive/PDX-1-positive cells was determined by flow cytometry. Likewise, the proportion of the cells was determined as to iPS cells and cells before the culture at stage 4 (s3d2: stage 3, day 2). […]
Also, an effect was compared between a factor having CDK1/2-inhibiting activity and a factor having CDK8/19-inhibiting activity by a similar method. […] The proportion of NKX6.1-positive/PDX-1-positive cells was determined.

Row | inhibition at 1 µM (CDK8/CycC) [%] | inhibition at 10 µM (CDK8/CycC) [%] | inhibition at 1 µM (CDC2L6/CycC (CDK19)) [%] | inhibition at 10 µM (CDC2L6/CycC (CDK19)) [%] | SMILES | proportion of NKX6.1-positive/PDX-1-positive cells [1]
1 | 103 | 102 | 100 | 100 | CCCCNC(=O)c1ccc2cncc(-c3ccc(OC)cc3)c2n1 [Compound 6, N-Butyl-8-(4-methoxyphenyl)-1,6-naphthyridine-2-carboxamide trifluoroacetate] | –
2 | 101 | 105 | 101 | 104 | NC(=O)c1ccc(-c2c[nH]c3ncccc23)cc1NCc1ccccc1 [Compound 3, 2-(Benzylamino)-4-(1H-pyrrolo[2,3-b]pyridin-3-yl)benzamide] | –
3 | 91 | 102 | 94 | 101 | c1ccc(COc2cccc(-c3c[nH]c4ncccc34)c2)cc1 [Compound 4, 3-(3-(Benzyloxy)phenyl)-1H-pyrrolo[2,3-b]pyridine] | –
4 | 92 | 104 | 83 | 100 | CCCN(CCC)C(=O)c1ccc2cncc(-c3ccc(C)cc3)c2n1 [Compound 7, 8-(4-Methylphenyl)-N,N-dipropyl-1,6-naphthyridine-2-carboxamide trifluoroacetate] | –
5 | 100 | 100 | 102 | 103 | O=C1Nc2ccccc2N(S(=O)(=O)c2ccc(F)cc2)C1CCSc1ccc2nccn2n1 (centres unmarked) [Compound 2, 4-((4-Fluorophenyl)sulfonyl)-3-(2-(imidazo[1,2-b]pyridazin-6-ylsulfanyl)ethyl)-3,4-dihydroquinoxalin-2(1H)-one] | –
6 | 97 | 94 | 99 | 96 | Cn1ncc2c1-c1c(Oc3ccc(F)cc3F)sc(C(N)=O)c1CC2 [Compound 1, 8-(2,4-Difluorophenoxy)-1-methyl-4,5-dihydro-1H-thieno[3,4-g]indazole-6-carboxamide] | –
7 | 87 | 100 | 86 | 100 | Oc1ccc(-c2n[nH]cc2-c2ccc3c(c2)OCCO3)c(O)c1 [Compound 5, 4-(4-(2,3-Dihydro-1,4-benzodioxin-6-yl)-1H-pyrazol-3-yl)benzene-1,3-diol, reference compound] | –
8 | – | – | – | – | Nc1nc(Nc2ccc(S(N)(=O)=O)cc2)nn1C(=S)Nc1c(F)cccc1F [CAS443798-55-8] | efficient induction of differentiation into pancreatic progenitor cells was not observed
